From patent publication US9198433B2, “Substituted benzene fungicides” (E I DU PONT DE NEMOURS AND COMPANY, priority 2007, dated 2015)
Marks after values point to notes of the source that are not given here.

Experiments:
Type in all cases: in vivo
[1] = system: Erysiphe graminis f. sp. tritici; assay: Test A: wheat powdery mildew, preventive spray on wheat seedlings, disease rating
Source text: (§1) The test compounds were first dissolved in acetone in an amount equal to 3% of the final volume and then suspended at the desired concentration (in ppm) in acetone and purified water (50/50 mix) containing 250 ppm of the surfactant Trem® 014 (polyhydric alcohol esters). The resulting test suspensions were then used in Tests A-L. Spraying a 200 ppm test suspension to the point of run-off on the test plants was the equivalent of an application rate of 500 g/ha. The test suspension was sprayed to the point of run-off on wheat seedlings. […] A dash (-) indicates no test results. All results are for 200 ppm except where followed by an “*”, which indicates 40 ppm or “**”, which indicates 50 ppm.

[2] = system: Puccinia recondita f. sp. tritici; assay: Test B: wheat leaf rust, preventive spray on wheat seedlings, disease rating
Source text: as §1

Septoria nodorum = assay: Test C: wheat glume blotch, preventive spray on wheat seedlings, disease rating
Source text: as §1

Septoria tritici = assay: Test D: wheat leaf blotch, preventive spray on wheat seedlings, disease rating
Source text: The test compounds were first dissolved in acetone in an amount equal to 3% of the final volume and then suspended at the desired concentration (in ppm) in acetone and purified water (50/50 mix) containing 250 ppm of the surfactant Trem® 014 (polyhydric alcohol esters). The resulting test suspensions were then used in Tests A-L. Spraying a 200 ppm test suspension to the point of run-off on the test plants was the equivalent of an application rate of 500 g/ha. The test suspension was sprayed to the point of run-off on wheat seedlings. The following day the seedlings were inoculated with a spore suspension of Septoria tritici (the causal agent of wheat leaf blotch) and incubated in a saturated atmosphere at 24° C. for 48 h, and then moved to a growth chamber at 20° C. for 19 days, after which time disease ratings were made. […] A dash (-) indicates no test results. All results are for 200 ppm except where followed by an “*”, which indicates 40 ppm or “**”, which indicates 50 ppm.

Botrytis cinerea = assay: Test F: tomato Botrytis, preventive spray on tomato seedlings, disease rating
Source text: (§2) The test compounds were first dissolved in acetone in an amount equal to 3% of the final volume and then suspended at the desired concentration (in ppm) in acetone and purified water (50/50 mix) containing 250 ppm of the surfactant Trem® 014 (polyhydric alcohol esters). The resulting test suspensions were then used in Tests A-L. Spraying a 200 ppm test suspension to the point of run-off on the test plants was the equivalent of an application rate of 500 g/ha. The test suspension was sprayed to the point of run-off on tomato seedlings. […] A dash (-) indicates no test results. All results are for 200 ppm except where followed by an “*”, which indicates 40 ppm or “**”, which indicates 50 ppm.

Alternaria solani = assay: Test H: tomato early blight, preventive spray on tomato seedlings, disease rating
Source text: as §2

[3] = 200 ppm, 100 = 100% disease control, 0 = no control relative to controls
[4] = 40 ppm (*), 100 = 100% disease control, 0 = no control relative to controls

SMILES	Percentage Disease Control, Test F (Botrytis cinerea; 200 ppm) [%]	Percentage Disease Control, Test H (Alternaria solani; 200 ppm) [%]	Percentage Disease Control, Test A ([1]; 40 ppm (*))	Percentage Disease Control, Test D (Septoria tritici; 40 ppm (*))	Percentage Disease Control, Test B ([2]; 40 ppm (*))	Percentage Disease Control, Test C (Septoria nodorum; 40 ppm (*))	Percentage Disease Control, Test H (Alternaria solani; 40 ppm (*))	other results
COC(=O)NCc1cc(-c2ccnc(C3CC3)n2)ccc1Cl [Cmpd 137]								Percentage Disease Control, Test A [1, 3]: 95%; Percentage Disease Control, Test B [2, 3]: 99%; Percentage Disease Control, Test C (Septoria nodorum; [4]): 90* %; Percentage Disease Control, Test D (Septoria tritici; [4]): 97* %; Percentage Disease Control, Test F (Botrytis cinerea; [3]): 0%; Percentage Disease Control, Test H (Alternaria solani; [3]): 15%
COC(=O)NCc1cc(-c2ccn(-c3ccc(Cl)c(Cl)c3)n2)ccc1Cl [Cmpd 117]	94	95						Percentage Disease Control, Test A ([1]; 200 ppm): 98%; Percentage Disease Control, Test B ([2]; 200 ppm): 99%; Percentage Disease Control, Test C (Septoria nodorum; 200 ppm): 100%; Percentage Disease Control, Test D (Septoria tritici; 200 ppm): 100%
COC(=O)NCc1cc(-n2cnc(-c3cccc(C(F)(F)F)c3)n2)ccc1Cl [Cmpd 120]	0	0	98* %	94* %				Percentage Disease Control, Test B ([2]; 200 ppm): 79%; Percentage Disease Control, Test C (Septoria nodorum; 200 ppm): 0%
COC(=O)NCc1cc(-c2ccn(-c3cccc(F)c3)n2)ccc1Cl [Cmpd 115]	32	96						Percentage Disease Control, Test A ([1]; 200 ppm): 98%; Percentage Disease Control, Test B ([2]; 200 ppm): 99%; Percentage Disease Control, Test C (Septoria nodorum; 200 ppm): 100%; Percentage Disease Control, Test D (Septoria tritici; 200 ppm): 100%
COC(=O)NCc1cc(-n2ccc(-c3ccc(Br)cc3)n2)ccc1Cl [Cmpd 124]	0		100* %	100* %	100* %	100* %	99* %	
COC(=O)NCc1cc(-n2ccc(-c3cccc(Cl)c3)n2)ccc1Cl [Cmpd 123]	63	87	98* %	99* %	99* %	100* %		
COC(=O)NCc1cc(-c2cc(-c3ccc(C(C)(C)C)cc3)[nH]n2)ccc1Cl [Cmpd 99]	98	0						Percentage Disease Control, Test A ([1]; 200 ppm): 82%; Percentage Disease Control, Test B ([2]; 200 ppm): 74%; Percentage Disease Control, Test C (Septoria nodorum; 200 ppm): 0%; Percentage Disease Control, Test D (Septoria tritici; 200 ppm): 92%
COC(=O)NCc1cc(-c2ccn(CC(C)Oc3ccccc3)n2)ccc1Cl (racemic) [Cmpd 61]			84* %	99* %	100* %	99* %	0* %	Percentage Disease Control, Test F (Botrytis cinerea; 40 ppm (*)): 0* %
CCCn1nc(C(F)(F)F)cc1-c1ccc(Cl)c(CNC(=O)OC)c1 [Cmpd 144]								Percentage Disease Control, Test A [1, 3]: 97%; Percentage Disease Control, Test B [2, 3]: 19%; Percentage Disease Control, Test C (Septoria nodorum; [3]): 0%; Percentage Disease Control, Test D (Septoria tritici; [3]): 95%; Percentage Disease Control, Test F (Botrytis cinerea; [3]): 0%; Percentage Disease Control, Test H (Alternaria solani; [3]): 0%
COC(=O)NCc1cc(-n2ccc(-c3cccc(Br)c3)n2)ccc1Cl [Cmpd 121]	0		98* %	99* %	98* %	100* %	90* %	
COC(=O)NCc1cc(-c2ccnc(Cl)n2)ccc1Cl [Cmpd 130]								Percentage Disease Control, Test A [1, 3]: 80%; Percentage Disease Control, Test B [2, 3]: 67%; Percentage Disease Control, Test C (Septoria nodorum; [3]): 92%; Percentage Disease Control, Test D (Septoria tritici; [3]): 96%; Percentage Disease Control, Test F (Botrytis cinerea; [3]): 0%; Percentage Disease Control, Test H (Alternaria solani; [3]): 0%
COC(=O)NCc1cc(-c2ccn(-c3nc(C)ns3)n2)ccc1Cl [Cmpd 105]	0			99* %	100* %	100* %	90* %	Percentage Disease Control, Test A ([1]; 200 ppm): 51%
COC(=O)NCc1cc(-c2ccn(-c3ccc(Cl)cc3)n2)ccc1Cl [Cmpd 74]			100* %	100* %	100* %	100* %	99* %	Percentage Disease Control, Test F (Botrytis cinerea; 40 ppm (*)): 51* %
COC(=O)NCc1cc(-c2ccn(-c3cccc(Cl)c3)n2)ccc1Cl [Cmpd 80]			98* %	100* %	98* %	100* %	29* %	Percentage Disease Control, Test F (Botrytis cinerea; 40 ppm (*)): 60* %
CCSc1nsc(-n2ccc(-c3ccc(Cl)c(CNC(=O)OC)c3)n2)n1 [Cmpd 93]	0	15	93* %	96* %	98* %	100* %		
COC(=O)NCc1cc(-c2ncn(-c3cccc(C(F)(F)F)c3)n2)ccc1Cl [Cmpd 89]	0		100* %	100* %	100* %	100* %	89* %	
COC(=O)NCc1cc(-c2ccn(-c3nc(C(C)(C)C)ns3)n2)ccc1Cl [Cmpd 96]	0	59	100* %	100* %	100* %	100* %		
COC(=O)NCc1cc(-c2ccn(Cc3ccccc3OC(F)(F)F)n2)ccc1Cl [Cmpd 76]			99* %	100* %	100* %	99* %	0* %	Percentage Disease Control, Test F (Botrytis cinerea; 40 ppm (*)): 0* %
COC(=O)NCc1cc(C(C)=NOC[Si](C)(C)c2ccccc2)ccc1Cl [Compound 15]	0	33	100* %	100* %	100* %	100* %		
COC(=O)NCc1cc(-c2ccn(-c3cccc(C)c3)n2)ccc1Cl [Cmpd 81]			85* %	99* %	99* %	100* %	97* %	Percentage Disease Control, Test F (Botrytis cinerea; 40 ppm (*)): 81* %
CNC(=O)C(=NOC)c1cc(-c2ccn(-c3cccc(C(F)(F)F)c3)n2)ccc1C [Cmpd 85]	0	86	100* %	99* %	97* %	99* %		
COC(=O)NCc1cc(-c2cnn(-c3ccc(Cl)cc3)n2)ccc1Cl [Compound 147]								Percentage Disease Control, Test A [1, 4]: 100* %; Percentage Disease Control, Test B [2, 4]: 99* %; Percentage Disease Control, Test C (Septoria nodorum; [4]): 99* %; Percentage Disease Control, Test D (Septoria tritici; [4]): 100* %; Percentage Disease Control, Test F (Botrytis cinerea; [3]): 61%; Percentage Disease Control, Test H (Alternaria solani; [3]): 15%
